In the assay the target is PARP-1 (Homo sapiens, UniProt P09874). Briefly: Inhibition of PARP by Compounds Having Formula I. The format is biochemical.
Sequence of PARP-1 (P09874 whole entry, species assumed): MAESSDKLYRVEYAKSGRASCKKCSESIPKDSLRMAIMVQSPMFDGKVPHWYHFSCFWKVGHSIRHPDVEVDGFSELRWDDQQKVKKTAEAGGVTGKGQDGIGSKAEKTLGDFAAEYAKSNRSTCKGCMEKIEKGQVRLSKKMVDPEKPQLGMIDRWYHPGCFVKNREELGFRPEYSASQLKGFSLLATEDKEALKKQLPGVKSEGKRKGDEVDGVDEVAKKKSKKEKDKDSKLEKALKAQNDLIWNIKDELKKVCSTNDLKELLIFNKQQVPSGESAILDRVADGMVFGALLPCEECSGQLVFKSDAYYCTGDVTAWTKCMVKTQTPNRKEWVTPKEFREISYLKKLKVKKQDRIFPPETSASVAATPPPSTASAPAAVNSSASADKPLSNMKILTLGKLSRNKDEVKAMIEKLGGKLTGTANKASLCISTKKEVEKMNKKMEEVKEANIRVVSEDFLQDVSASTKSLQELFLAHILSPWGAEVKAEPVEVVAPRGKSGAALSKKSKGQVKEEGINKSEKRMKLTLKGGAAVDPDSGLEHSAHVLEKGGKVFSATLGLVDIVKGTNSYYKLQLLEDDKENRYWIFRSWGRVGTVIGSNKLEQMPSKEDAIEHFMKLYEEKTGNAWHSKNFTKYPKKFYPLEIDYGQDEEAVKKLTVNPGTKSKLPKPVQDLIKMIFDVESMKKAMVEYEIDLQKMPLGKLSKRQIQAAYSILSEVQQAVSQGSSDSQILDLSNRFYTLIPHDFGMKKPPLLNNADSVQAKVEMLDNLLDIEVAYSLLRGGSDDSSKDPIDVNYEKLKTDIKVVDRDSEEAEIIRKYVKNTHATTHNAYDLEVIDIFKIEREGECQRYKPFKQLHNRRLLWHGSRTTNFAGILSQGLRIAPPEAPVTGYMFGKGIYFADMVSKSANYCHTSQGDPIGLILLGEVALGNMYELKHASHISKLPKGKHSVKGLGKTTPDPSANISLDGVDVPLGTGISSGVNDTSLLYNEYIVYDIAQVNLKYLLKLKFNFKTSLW
Consider `NC(=O)c1cccc2sc(-c3ccc(OS(=O)(=O)C(F)(F)F)cc3)nc12` [Example 1, 4-[4-(aminocarbonyl)-1,3-benzothiazol-2-yl]phenyl trifluoromethanesulfonate], for which the Ki is 45 nM.

The compound `NC(=O)c1cccc2sc(-c3ccc(-c4ccccc4)cc3)nc12` [Example 2, 2-(1,1′-biphenyl-4-yl)-1,3-benzothiazole-4-carboxamide] registered a Ki of 316 nM.

In turn, `NC(=O)c1cccc2sc(-c3ccc(-c4cccnc4)cc3)nc12` [Example 3, 2-(4-pyridin-3-ylphenyl)-1,3-benzothiazole-4-carboxamide] registered a Ki of 9.5 nM.

In the case of `NC(=O)c1cccc2sc(-c3ccc(-c4ccncc4)cc3)nc12` [Example 4, 2-(4-pyridin-4-ylphenyl)-1,3-benzothiazole-4-carboxamide], the Ki was found to be 26 nM.

In general, Ki refers to the equilibrium dissociation constant of an inhibitor or competing ligand from its target. A high value points to lower affinity.

(Values after patent publication US8093396B2, “Benzthiazole inhibitors of poly(ADP-ribose)polymerase” (Abbott Laboratories, priority 2009, dated 2012).)
